Assay results as given in ChEMBL document CHEMBL1147101, “Development and persistence of antimicrobial resistance in Pseudomonas aeruginosa: a longitudinal observation in mechanically ventilated patients” (Antimicrob Agents Chemother, 2007).
The source made the active and inactive calls. No cut-off for these calls is given here.

Experiments:
Assay type in all cases: functional, organism-based
Conditions in all cases: Trachea
Pseudomonas aeruginosa [1] = test: Antimicrobial activity against Pseudomonas aeruginosa 65.38-3 tracheal isolates from mechanically ventilated tuberculosis patient
Pseudomonas aeruginosa [2] = test: Antimicrobial activity against Pseudomonas aeruginosa 65.38-4 tracheal isolates from mechanically ventilated tuberculosis patient
Pseudomonas aeruginosa [3] = test: Antimicrobial activity against Pseudomonas aeruginosa 1A9 tracheal isolates from mechanically ventilated tuberculosis patient
Pseudomonas aeruginosa [4] = test: Antimicrobial activity against Pseudomonas aeruginosa 1C9 tracheal isolates from mechanically ventilated tuberculosis patient
Pseudomonas aeruginosa [5] = test: Antimicrobial activity against Pseudomonas aeruginosa 2A1 tracheal isolates from mechanically ventilated tuberculosis patient
Pseudomonas aeruginosa [6] = test: Antimicrobial activity against Pseudomonas aeruginosa 2C1 tracheal isolates from mechanically ventilated tuberculosis patient
Pseudomonas aeruginosa [7] = test: Antimicrobial activity against Pseudomonas aeruginosa 2A2 tracheal isolates from mechanically ventilated tuberculosis patient
Pseudomonas aeruginosa [8] = test: Antimicrobial activity against Pseudomonas aeruginosa 2C2 tracheal isolates from mechanically ventilated tuberculosis patient
Pseudomonas aeruginosa [9] = test: Antimicrobial activity against Pseudomonas aeruginosa 2A3 tracheal isolates from mechanically ventilated tuberculosis patient
Pseudomonas aeruginosa [10] = test: Antimicrobial activity against Pseudomonas aeruginosa 2A5 tracheal isolates from mechanically ventilated tuberculosis patient
Pseudomonas aeruginosa [11] = test: Antimicrobial activity against Pseudomonas aeruginosa 2B5 tracheal isolates from mechanically ventilated tuberculosis patient
Pseudomonas aeruginosa [12] = test: Antimicrobial activity against Pseudomonas aeruginosa 2A6 tracheal isolates from mechanically ventilated tuberculosis patient
Pseudomonas aeruginosa [13] = test: Antimicrobial activity against Pseudomonas aeruginosa 2F6 tracheal isolates from mechanically ventilated tuberculosis patient
Pseudomonas aeruginosa [14] = test: Antimicrobial activity against Pseudomonas aeruginosa 2A7 tracheal isolates from mechanically ventilated tuberculosis patient
Pseudomonas aeruginosa [15] = test: Antimicrobial activity against Pseudomonas aeruginosa 2A9 tracheal isolates from mechanically ventilated tuberculosis patient
Pseudomonas aeruginosa [16] = test: Antimicrobial activity against Pseudomonas aeruginosa 3B1 tracheal isolates from mechanically ventilated tuberculosis patient
Pseudomonas aeruginosa [17] = test: Antimicrobial activity against Pseudomonas aeruginosa 65.68-1 tracheal isolates from mechanically ventilated tuberculosis patient
Pseudomonas aeruginosa [18] = test: Antimicrobial activity against Pseudomonas aeruginosa 65.68-2 tracheal isolates from mechanically ventilated tuberculosis patient
Pseudomonas aeruginosa [19] = test: Antimicrobial activity against Pseudomonas aeruginosa 65.68-3 tracheal isolates from mechanically ventilated tuberculosis patient
Pseudomonas aeruginosa [20] = test: Antimicrobial activity against Pseudomonas aeruginosa 65.68-4 tracheal isolates from mechanically ventilated tuberculosis patient
Pseudomonas aeruginosa [21] = test: Antimicrobial activity against Pseudomonas aeruginosa 15H5 tracheal isolates from mechanically ventilated chronic respiratory insufficiency patient
Pseudomonas aeruginosa [22] = test: Antimicrobial activity against Pseudomonas aeruginosa P21.21 tracheal isolates from mechanically ventilated tuberculosis patient
Pseudomonas aeruginosa [23] = test: Antimicrobial activity against Pseudomonas aeruginosa 65.18-1 tracheal isolates from mechanically ventilated tuberculosis patient
Pseudomonas aeruginosa [24] = test: Antimicrobial activity against Pseudomonas aeruginosa 65.18-2 tracheal isolates from mechanically ventilated tuberculosis patient
Pseudomonas aeruginosa [25] = test: Antimicrobial activity against Pseudomonas aeruginosa 65.18-3 tracheal isolates from mechanically ventilated tuberculosis patient
Pseudomonas aeruginosa [26] = test: Antimicrobial activity against Pseudomonas aeruginosa 65.18-4 tracheal isolates from mechanically ventilated tuberculosis patient
Pseudomonas aeruginosa [27] = test: Antimicrobial activity against Pseudomonas aeruginosa P21.23 tracheal isolates from mechanically ventilated tuberculosis patient
Pseudomonas aeruginosa [28] = test: Antimicrobial activity against Pseudomonas aeruginosa IA5 tracheal isolates from mechanically ventilated tuberculosis patient
Pseudomonas aeruginosa [29] = test: Antimicrobial activity against Pseudomonas aeruginosa IC7 tracheal isolates from mechanically ventilated tuberculosis patient
Pseudomonas aeruginosa [30] = test: Antimicrobial activity against Pseudomonas aeruginosa 65.33-1 tracheal isolates from mechanically ventilated tuberculosis patient
Pseudomonas aeruginosa [31] = test: Antimicrobial activity against Pseudomonas aeruginosa 65.33-2 tracheal isolates from mechanically ventilated tuberculosis patient
Pseudomonas aeruginosa [32] = test: Antimicrobial activity against Pseudomonas aeruginosa 65.33-3 tracheal isolates from mechanically ventilated tuberculosis patient
Pseudomonas aeruginosa [33] = test: Antimicrobial activity against Pseudomonas aeruginosa 65.33-4 tracheal isolates from mechanically ventilated tuberculosis patient
Pseudomonas aeruginosa [34] = test: Antimicrobial activity against Pseudomonas aeruginosa 65.36-1 tracheal isolates from mechanically ventilated tuberculosis patient
Pseudomonas aeruginosa [35] = test: Antimicrobial activity against Pseudomonas aeruginosa 65.36-2 tracheal isolates from mechanically ventilated tuberculosis patient
Pseudomonas aeruginosa [36] = test: Antimicrobial activity against Pseudomonas aeruginosa 65.36-3 tracheal isolates from mechanically ventilated tuberculosis patient
Pseudomonas aeruginosa [37] = test: Antimicrobial activity against Pseudomonas aeruginosa 65.36-4 tracheal isolates from mechanically ventilated tuberculosis patient
Pseudomonas aeruginosa [38] = test: Antimicrobial activity against Pseudomonas aeruginosa 65.38-2 tracheal isolates from mechanically ventilated tuberculosis patient
Pseudomonas aeruginosa [39] = test: Antimicrobial activity against Pseudomonas aeruginosa 1B9 tracheal isolates from mechanically ventilated tuberculosis patient
Pseudomonas aeruginosa [40] = test: Antimicrobial activity against Pseudomonas aeruginosa ID7 tracheal isolates from mechanically ventilated tuberculosis patient
Pseudomonas aeruginosa [41] = test: Antimicrobial activity against Pseudomonas aeruginosa 65.38-1 tracheal isolates from mechanically ventilated tuberculosis patient

Row | SMILES | Activity (Pseudomonas aeruginosa [1]) | Activity (Pseudomonas aeruginosa [2]) | Activity (Pseudomonas aeruginosa [3]) | Activity (Pseudomonas aeruginosa [5]) | Activity (Pseudomonas aeruginosa [6]) | Activity (Pseudomonas aeruginosa [7]) | Activity (Pseudomonas aeruginosa [8]) | Activity (Pseudomonas aeruginosa [9]) | Activity (Pseudomonas aeruginosa [10]) | Activity (Pseudomonas aeruginosa [13]) | Activity (Pseudomonas aeruginosa [14]) | Activity (Pseudomonas aeruginosa [15]) | Activity (Pseudomonas aeruginosa [16]) | Activity (Pseudomonas aeruginosa [17]) | Activity (Pseudomonas aeruginosa [18]) | Activity (Pseudomonas aeruginosa [22]) | Activity (Pseudomonas aeruginosa [25]) | Activity (Pseudomonas aeruginosa [27]) | Activity (Pseudomonas aeruginosa [28]) | Activity (Pseudomonas aeruginosa [29]) | other results
1 | NC[C@H]1O[C@H](O[C@H]2[C@H](O)[C@@H](O[C@H]3O[C@H](CO)[C@@H](O)[C@H](N)[C@H]3O)[C@H](N)C[C@@H]2N)[C@H](N)C[C@@H]1O | Active | Active | Active | Active | Active | Active | Active | Active | Active | Active | Active | Active | Active | Active | Active | Active | Active | Active | Active | Active | Activity (Pseudomonas aeruginosa [4]): Active; Activity (Pseudomonas aeruginosa [11]): Active; Activity (Pseudomonas aeruginosa [12]): Active; Activity (Pseudomonas aeruginosa [19]): Active; Activity (Pseudomonas aeruginosa [20]): Active; Activity (Pseudomonas aeruginosa [21]): Active; Activity (Pseudomonas aeruginosa [23]): Active; Activity (Pseudomonas aeruginosa [24]): Active; Activity (Pseudomonas aeruginosa [26]): Active; Activity (Pseudomonas aeruginosa [30]): Active; Activity (Pseudomonas aeruginosa [31]): Active; Activity (Pseudomonas aeruginosa [32]): Active; Activity (Pseudomonas aeruginosa [33]): Active; Activity (Pseudomonas aeruginosa [34]): Active; Activity (Pseudomonas aeruginosa [35]): Active; Activity (Pseudomonas aeruginosa [36]): Active; Activity (Pseudomonas aeruginosa [37]): Active; Activity (Pseudomonas aeruginosa [38]): Active
2 | CCN1CCN(C(=O)N[C@@H](C(=O)N[C@@H]2C(=O)N3[C@@H]2SC(C)(C)[C@@H]3C(=O)O)c2ccccc2)C(=O)C1=O | inactive | Active | inactive | inactive | inactive | Active | Active | Active | Active | inactive | inactive | inactive | Active | Active | Active | Active | Active | Active | Active | Active | Activity (Pseudomonas aeruginosa [39]): inactive; Activity (Pseudomonas aeruginosa [11]): Active; Activity (Pseudomonas aeruginosa [12]): inactive; Activity (Pseudomonas aeruginosa [19]): Active; Activity (Pseudomonas aeruginosa [20]): Active; Activity (Pseudomonas aeruginosa [23]): Active; Activity (Pseudomonas aeruginosa [24]): Active; Activity (Pseudomonas aeruginosa [26]): Active; Activity (Pseudomonas aeruginosa [40]): Active; Activity (Pseudomonas aeruginosa [30]): Active; Activity (Pseudomonas aeruginosa [31]): Active; Activity (Pseudomonas aeruginosa [32]): inactive; Activity (Pseudomonas aeruginosa [33]): Active; Activity (Pseudomonas aeruginosa [34]): Active; Activity (Pseudomonas aeruginosa [35]): Active; Activity (Pseudomonas aeruginosa [36]): Active; Activity (Pseudomonas aeruginosa [37]): inactive; Activity (Pseudomonas aeruginosa [41]): inactive; Activity (Pseudomonas aeruginosa [38]): inactive
3 | C[C@H]1[C@H](NC(=O)/C(=N\OC(C)(C)C(=O)O)c2csc(N)n2)C(=O)N1S(=O)(=O)O | inactive |  | inactive |  | inactive | Active | Active | Active | Active | inactive | inactive | inactive | Active | Active | Active | Active | Active | Active | Active | Active | Activity (Pseudomonas aeruginosa [39]): inactive; Activity (Pseudomonas aeruginosa [11]): Active; Activity (Pseudomonas aeruginosa [12]): inactive; Activity (Pseudomonas aeruginosa [19]): Active; Activity (Pseudomonas aeruginosa [20]): Active; Activity (Pseudomonas aeruginosa [23]): Active; Activity (Pseudomonas aeruginosa [24]): Active; Activity (Pseudomonas aeruginosa [26]): Active; Activity (Pseudomonas aeruginosa [30]): Active; Activity (Pseudomonas aeruginosa [33]): Active; Activity (Pseudomonas aeruginosa [41]): inactive
4 | CCN[C@@H]1C[C@H](N)[C@@H](O[C@H]2OC(CN)=CC[C@H]2N)[C@H](O)[C@H]1O[C@H]1OC[C@](C)(O)[C@H](NC)[C@H]1O | inactive | inactive | Active | Active | inactive | Active | Active | Active | Active | inactive | inactive | inactive | Active | Active | inactive | Active | Active | Active | Active | Active | Activity (Pseudomonas aeruginosa [39]): inactive; Activity (Pseudomonas aeruginosa [24]): Active; Activity (Pseudomonas aeruginosa [26]): Active; Activity (Pseudomonas aeruginosa [30]): Active; Activity (Pseudomonas aeruginosa [37]): inactive; Activity (Pseudomonas aeruginosa [41]): inactive; Activity (Pseudomonas aeruginosa [38]): inactive
5 | C[C@@H](O)[C@H]1C(=O)N2C(C(=O)O)=C(S[C@@H]3CN[C@H](C(=O)N(C)C)C3)[C@H](C)[C@H]12 | inactive | inactive | inactive | inactive | inactive | inactive |  | Active | Active | inactive | inactive | inactive | Active | inactive | inactive | Active | Active | Active | Active | Active | Activity (Pseudomonas aeruginosa [39]): inactive; Activity (Pseudomonas aeruginosa [12]): inactive; Activity (Pseudomonas aeruginosa [19]): inactive; Activity (Pseudomonas aeruginosa [20]): inactive; Activity (Pseudomonas aeruginosa [23]): Active; Activity (Pseudomonas aeruginosa [31]): inactive; Activity (Pseudomonas aeruginosa [32]): inactive; Activity (Pseudomonas aeruginosa [36]): inactive; Activity (Pseudomonas aeruginosa [37]): inactive; Activity (Pseudomonas aeruginosa [41]): inactive; Activity (Pseudomonas aeruginosa [38]): inactive
